Assay results reported in patent US6346533B1, “Intraconazole exhibiting an improved solubility, a method of preparing the same and a pharmaceutical composition for oral administration comprising the same” (Dong-A Pharmaceutical Co., Ltd., priority 1997, dated 2002).
Values after ≈ are worked out from the molar mass of the structure shown.

Legend:
[1] = cited from earlier work
[2] = n-octanol and aqueous buffer solution of pH 8.1; cited from earlier work
[3] = Determination of solubility in artificial gastric juice; assay type: physicochemical; conditions: 2 hours; for Solubility: artificial gastric juice, 37° C., pH 1.2
Procedure: Excess of itraconazole from Example 1 and conventional itraconazole prepared without dissolution-induced drying were added to artificial gastric juice of pH 1.2 and shaken at 37° C. for 2 hours, respectively. Each of the mixture were filtered through a membrane filter with pore diameter of […] and each of the filtrate was subjected to high-performance liquid chromatography, thereby obtaining gastric juice solubility.

Row | SMILES | Solubility in water [1] | log partition coefficient [2] | Solubility relative to itraconazole without dissolution-induced drying ([3]; artificial gastric juice pH 1.2, 37° C.) [times] | Solubility [3] [µg/mL]
1 | CCC(C)n1ncn(-c2ccc(N3CCN(c4ccc(OCC5COC(Cn6cncn6)(c6ccc(Cl)cc6Cl)O5)cc4)CC3)cc2)c1=O (racemic) [Itraconazole, itraconazole] | less than 1 μg/ml | 5.66 | – | –
2 | CCC(C)n1ncn(-c2ccc(N3CCN(c4ccc(OCC5COC(Cn6cncn6)(c6ccc(Cl)cc6Cl)O5)cc4)CC3)cc2)c1=O (centres unmarked) [Itraconazole of Example 1, itraconazole] | – | – | 62 | 218.6 (≈ 310 µM)
3 | CCC(C)n1ncn(-c2ccc(N3CCN(c4ccc(OCC5COC(Cn6cncn6)(c6ccc(Cl)cc6Cl)O5)cc4)CC3)cc2)c1=O (centres unmarked) [The conventional itraconazole without dissolution-induced dr] | – | – | – | 3.5 (≈ 4.96 µM)
